Converted amounts (≈) assume the structure as drawn.
Legend:
MRSA SA11 = type: cell-based, Staphylococcus aureus
Method: (§1) Susceptibility to teixobactin and its analogues was tested on the selected Gram-positive strains using Tecan Freedom EVO high-throughput automated platform, following the standard broth dilution method as described by the Clinical and Laboratory Standards Institute ^3. MICS were determined according to CLSI guideline.

MRSA SA86 = type: cell-based, Staphylococcus aureus
Method: as §1

MRSA SA88 = type: cell-based, Staphylococcus aureus
Method: as §1

MRSA(SA11I4) = type: cell-based, Staphylococcus aureus
Method: as §1

SA (ATCC29213) = type: cell-based, Staphylococcus aureus
Method: as §1

Enterococcus ATCCET = type: cell-based
Method: as §1

Enterococcus ET60 = type: cell-based
Method: as §1

Enterococcus ET6 = type: cell-based
Method: as §1

[1] = tested on: Streptococcus faecalis SF; type: cell-based
Method: as §1

MRSA and SA strains = assay: MIC, summary over S. aureus strains; type: cell-based, Staphylococcus aureus; conditions: MRSA clinical isolate and MSSA ATCC29213; from MICs
Method: as §1

**Q.** What does the source list for `CC[C@@H](C)[C@@H](NC(=O)[C@@H](CCC(N)=O)NC(=O)[C@H](CO)NC(=O)[C@@H](NC(=O)[C@@H](Cc1ccccc1)NC)[C@@H](C)CC)C(=O)N[C@H](C(=O)N[C@@H](CO)C(=O)N[C@H]1C(=O)N[C@@H](C)C(=O)N[C@@H](C2CCCCC2)C(=O)N[C@@H]([C@@H](C)CC)C(=O)N[C@H]1C)[C@@H](C)CC` [T83]?
**A.** Minimum inhibitory concentration (MIC) MRSA SA11 (MRSA SA11): 0.5 µg/mL (≈ 0.408 µM); Minimum inhibitory concentration (MIC) MRSA SA86 (MRSA SA86): 1 µg/mL (≈ 0.815 µM); Minimum inhibitory concentration (MIC) MRSA SA88 (MRSA SA88): 0.5 µg/mL (≈ 0.408 µM); Minimum inhibitory concentration (MIC) MRSA(SA11I4) (MRSA(SA11I4)): 1 µg/mL (≈ 0.815 µM); Minimum inhibitory concentration (MIC) SA (ATCC29213) (SA (ATCC29213)): 0.5 µg/mL (≈ 0.408 µM); Minimum inhibitory concentration (MIC) Enterococcus ATCCET (Enterococcus ATCCET): 1 µg/mL (≈ 0.815 µM); Minimum inhibitory concentration (MIC) Enterococcus ET60 (Enterococcus ET60): 0.5 µg/mL (≈ 0.408 µM); Minimum inhibitory concentration (MIC) Enterococcus ET6 (Enterococcus ET6): 1 µg/mL (≈ 0.815 µM); Minimum inhibitory concentration (MIC) Streptococcus faecalis SF [1]: 0.5 µg/mL (≈ 0.408 µM)

**Q.** What does the source list for `CC[C@@H](C)[C@@H](NC(=O)[C@@H](CCC(N)=O)NC(=O)[C@H](CO)NC(=O)[C@@H](NC(=O)[C@@H](Cc1ccccc1)NC)[C@@H](C)CC)C(=O)N[C@H](C(=O)N[C@@H](CO)C(=O)N[C@H]1C(=O)N[C@@H](C)C(=O)N[C@@H]([C@@H](C)CC)C(=O)N[C@@H]([C@@H](C)CC)C(=O)N[C@H]1C)[C@@H](C)CC` [T84]?
**A.** Minimum inhibitory concentration (MIC) MRSA SA11 (MRSA SA11): 0.5 µg/mL (≈ 0.416 µM); Minimum inhibitory concentration (MIC) MRSA SA86 (MRSA SA86): 1 µg/mL (≈ 0.833 µM); Minimum inhibitory concentration (MIC) MRSA SA88 (MRSA SA88): 1 µg/mL (≈ 0.833 µM); Minimum inhibitory concentration (MIC) MRSA(SA11I4) (MRSA(SA11I4)): 1 µg/mL (≈ 0.833 µM); Minimum inhibitory concentration (MIC) SA (ATCC29213) (SA (ATCC29213)): 0.5 µg/mL (≈ 0.416 µM); Minimum inhibitory concentration (MIC) Enterococcus ATCCET (Enterococcus ATCCET): 1 µg/mL (≈ 0.833 µM); Minimum inhibitory concentration (MIC) Enterococcus ET60 (Enterococcus ET60): 1 µg/mL (≈ 0.833 µM); Minimum inhibitory concentration (MIC) Enterococcus ET6 (Enterococcus ET6): 1 µg/mL (≈ 0.833 µM); Minimum inhibitory concentration (MIC) Streptococcus faecalis SF [1]: 1 µg/mL (≈ 0.833 µM)

**Q.** How did the “Minimum inhibitory concentration (MIC) MRSA SA11” value (MRSA SA11) turn out when `CCC[C@@H]1NC(=O)[C@H](C)NC(=O)[C@H](NC(=O)[C@H](CO)NC(=O)[C@@H](NC(=O)[C@H](NC(=O)[C@@H](CCC(N)=O)NC(=O)[C@H](CO)NC(=O)[C@@H](NC(=O)[C@@H](Cc2ccccc2)NC)[C@@H](C)CC)[C@H](C)CC)[C@@H](C)CC)[C@H](C)NC(=O)[C@H]([C@@H](C)CC)NC1=O` [T85] was run?
**A.** 1 µg/mL (≈ 0.843 µM)

**Q.** What about the “Minimum inhibitory concentration (MIC) MRSA SA86” value (MRSA SA86) of the same compound?
**A.** 2 µg/mL (≈ 1.69 µM)

**Q.** What about the “Minimum inhibitory concentration (MIC) MRSA SA88” value (MRSA SA88) of the same compound?
**A.** 2 µg/mL (≈ 1.69 µM)

**Q.** What about the “Minimum inhibitory concentration (MIC) MRSA(SA11I4)” value (MRSA(SA11I4)) of the same compound?
**A.** 1 µg/mL (≈ 0.843 µM)

**Q.** What about the “Minimum inhibitory concentration (MIC) SA (ATCC29213)” value (SA (ATCC29213)) of the same compound?
**A.** 0.5 µg/mL (≈ 0.421 µM)

**Q.** And the “Minimum inhibitory concentration (MIC) Enterococcus ATCCET” value (Enterococcus ATCCET)?
**A.** 2 µg/mL (≈ 1.69 µM)

**Q.** And the “Minimum inhibitory concentration (MIC) Enterococcus ET60” value (Enterococcus ET60)?
**A.** 2 µg/mL (≈ 1.69 µM)

**Q.** What about the “Minimum inhibitory concentration (MIC) Enterococcus ET6” value (Enterococcus ET6) of the same compound?
**A.** 2 µg/mL (≈ 1.69 µM)

**Q.** What about the “Minimum inhibitory concentration (MIC) Streptococcus faecalis SF” value [1] of the same compound?
**A.** 1 µg/mL (≈ 0.843 µM)

**Q.** Which “Minimum inhibitory concentration (MIC) MRSA SA11” value (MRSA SA11) does the source give for `CC[C@@H](C)[C@@H](NC(=O)[C@@H](CCC(N)=O)NC(=O)[C@H](CO)NC(=O)[C@@H](NC(=O)[C@@H](Cc1ccccc1)NC)[C@@H](C)CC)C(=O)N[C@H](C(=O)N[C@@H](CO)C(=O)N[C@H]1C(=O)N[C@@H](C)C(=O)N[C@@H](CCSC)C(=O)N[C@@H]([C@@H](C)CC)C(=O)N[C@H]1C)[C@@H](C)CC` [T86] here?
**A.** 1 µg/mL (≈ 0.821 µM)

**Q.** And the “Minimum inhibitory concentration (MIC) MRSA SA86” value (MRSA SA86)?
**A.** 2 µg/mL (≈ 1.64 µM)

**Q.** And the “Minimum inhibitory concentration (MIC) MRSA SA88” value (MRSA SA88)?
**A.** 2 µg/mL (≈ 1.64 µM)

**Q.** And the “Minimum inhibitory concentration (MIC) MRSA(SA11I4)” value (MRSA(SA11I4))?
**A.** 2 µg/mL (≈ 1.64 µM)

**Q.** And the “Minimum inhibitory concentration (MIC) SA (ATCC29213)” value (SA (ATCC29213))?
**A.** 1 µg/mL (≈ 0.821 µM)

**Q.** What about the “Minimum inhibitory concentration (MIC) Enterococcus ATCCET” value (Enterococcus ATCCET) of the same compound?
**A.** 2 µg/mL (≈ 1.64 µM)

**Q.** What about the “Minimum inhibitory concentration (MIC) Enterococcus ET60” value (Enterococcus ET60) of the same compound?
**A.** 2 µg/mL (≈ 1.64 µM)

**Q.** And the “Minimum inhibitory concentration (MIC) Enterococcus ET6” value (Enterococcus ET6)?
**A.** 2 µg/mL (≈ 1.64 µM)

**Q.** What about the “Minimum inhibitory concentration (MIC) Streptococcus faecalis SF” value [1] of the same compound?
**A.** 1 µg/mL (≈ 0.821 µM)

**Q.** What does the source list for `CC[C@@H](C)[C@@H](NC(=O)[C@@H](CCC(N)=O)NC(=O)[C@H](CCCNC(=N)N)NC(=O)[C@@H](NC(=O)[C@@H](Cc1ccccc1)NC)[C@@H](C)CC)C(=O)N[C@H](C(=O)N[C@@H](CO)C(=O)N[C@H]1C(=O)N[C@@H](C)C(=O)N[C@@H](C2CCCCC2)C(=O)N[C@@H]([C@@H](C)CC)C(=O)O[C@H]1C)[C@@H](C)CC` [T87]?
**A.** Minimum inhibitory concentration (MIC) MRSA SA11 (MRSA SA11): 0.5 µg/mL (≈ 0.386 µM); Minimum inhibitory concentration (MIC) MRSA SA86 (MRSA SA86): 2 µg/mL (≈ 1.54 µM); Minimum inhibitory concentration (MIC) MRSA SA88 (MRSA SA88): 1 µg/mL (≈ 0.771 µM); Minimum inhibitory concentration (MIC) MRSA(SA11I4) (MRSA(SA11I4)): 2 µg/mL (≈ 1.54 µM); Minimum inhibitory concentration (MIC) SA (ATCC29213) (SA (ATCC29213)): 1 µg/mL (≈ 0.771 µM); Minimum inhibitory concentration (MIC) Enterococcus ATCCET (Enterococcus ATCCET): 1 µg/mL (≈ 0.771 µM); Minimum inhibitory concentration (MIC) Enterococcus ET60 (Enterococcus ET60): 0.5 µg/mL (≈ 0.386 µM); Minimum inhibitory concentration (MIC) Enterococcus ET6 (Enterococcus ET6): 1 µg/mL (≈ 0.771 µM); Minimum inhibitory concentration (MIC) Streptococcus faecalis SF [1]: 1 µg/mL (≈ 0.771 µM)

**Q.** With `CC[C@@H](C)[C@@H](NC(=O)[C@@H](CCC(N)=O)NC(=O)[C@H](CO)NC(=O)[C@@H](NC(=O)[C@@H](Cc1ccccc1)NC)[C@@H](C)CC)C(=O)N[C@H](C(=O)N[C@@H](CO)C(=O)N[C@H]1C(=O)N[C@@H](C)C(=O)N[C@@H](CC2CC2)C(=O)N[C@@H]([C@@H](C)CC)C(=O)O[C@H]1C)[C@@H](C)CC` [β-cyclopropyl-Ala10-teixobactin] as the compound, how does the “Minimum inhibitory concentration (MIC) MRSA(SA11I4)” value (MRSA(SA11I4)) read?
**A.** 2 µg/mL (≈ 1.67 µM)

**Q.** And the “Minimum inhibitory concentration (MIC) SA (ATCC29213)” value (SA (ATCC29213))?
**A.** 0.5 µg/mL (≈ 0.417 µM)

**Q.** What about the “Antibacterial activity compared with teixobactin” value (MRSA and SA strains) of the same compound?
**A.** comparable activities as teixobactin
